Source: patent publication US20070203118A1, “SUBSTITUTED TETRAHYDROISOQUINOLINES USED IN THE FORM OF MMP INHIBITORS, METHOD FOR THE PRODUCTION AND USE THEREOF IN THE FORM OF DRUGS” (SANOFI-AVENTIS DEUTSCHLAND GMBH, priority 2004, published 2007)

Target: T1, catalytic domain of human gelatinase-A (MMP-9) (Homo sapiens, UniProt P14780)
T1 construct: Determination of the Enzymatic Activity of the Catalytic Domain of Human Gelatinase-A (MMP-9); purchased Roche, Mannheim
Assay: Enzymatic activity of the catalytic domain of human gelatinase (MMP-9), fluorogenic substrate
Format: biochemical
Conditions: stated in the text
Protocol: Determination of the Enzymatic Activity of the Catalytic Domain of Human Gelatinase-A (MMP-9)
Activation of the proenzyme:
2 parts by volume of proenzyme were incubated with 1 part by volume of APMA solution at 37° C. for 4 hours. The APMA solution was prepared from a 10 mmol/l p-aminophenylmercuric acetate solution in 0.1 mmol/l NaOH by dilution with 3 parts by volume of Tris/HCl buffer pH 7.5 (see below). The pH was adjusted to between 7.0 and 7.5 by adding 1 mmol/l HCl. After activation of the enzyme it was diluted with the Tris/HCl buffer to a concentration of 4.2 mU/ml.
The enzymic activity was measured by incubating 10 μl of enzyme solution with 10 μl of a 3% strength (v/v) buffered dimethyl sulfoxide solution (reaction 1) for 15 minutes. The enzyme inhibitor activity was measured by incubating 10 μl of enzyme solution with 10 μl of a 3% strength (v/v) buffered dimethyl sulfoxide solution which contained the enzyme inhibitor (reaction 2).
The enzymic reaction both in the case of reaction 1 and in the case of reaction 2 was followed after addition of 10 μl of a 3% strength (v/v) aqueous dimethyl sulfoxide solution which contained 0.15 mmol/l of the substrate by fluorescence spectroscopy (328 nm (extinction)/393 nm (emission)).
The enzymic activity has been presented as increase in extinction/minute.
The effect of the inhibitor was calculated as percentage inhibition by the following formula: % inhibition=100−[(increase in extinction/minute in reaction 2)/(increase in extinction/minute in reaction 1)×100].
The IC50, which is the concentration of inhibitor which is necessary for 50% inhibition of the enzymic activity, was determined graphically by plotting the percentage inhibitions at various inhibitor concentrations.
The buffer solution contained 0.05% Brij (Sigma, Deisenhofen, Germany) and 0.1 mol/l Tris/HCl, 0.1 mol/l NaCl, 0.01 mol/l CaCl2 (pH=7.5). The enzyme solution contained 4.2 mU/ml of the enzyme domain. The substrate solution contained 0.15 mmol/l of the fluorogenic substrate (7-methoxycoumarin-4-yl)acetyl-Pro-Leu-Gly-Leu-3-(2′,4′-dinitrophenyl)-L-2,3-diaminopropionyl-Ala-Arg-NH2 (Bachem, Heidelberg, Germany).

T1 sequence (P14780 107-707 limits assumed): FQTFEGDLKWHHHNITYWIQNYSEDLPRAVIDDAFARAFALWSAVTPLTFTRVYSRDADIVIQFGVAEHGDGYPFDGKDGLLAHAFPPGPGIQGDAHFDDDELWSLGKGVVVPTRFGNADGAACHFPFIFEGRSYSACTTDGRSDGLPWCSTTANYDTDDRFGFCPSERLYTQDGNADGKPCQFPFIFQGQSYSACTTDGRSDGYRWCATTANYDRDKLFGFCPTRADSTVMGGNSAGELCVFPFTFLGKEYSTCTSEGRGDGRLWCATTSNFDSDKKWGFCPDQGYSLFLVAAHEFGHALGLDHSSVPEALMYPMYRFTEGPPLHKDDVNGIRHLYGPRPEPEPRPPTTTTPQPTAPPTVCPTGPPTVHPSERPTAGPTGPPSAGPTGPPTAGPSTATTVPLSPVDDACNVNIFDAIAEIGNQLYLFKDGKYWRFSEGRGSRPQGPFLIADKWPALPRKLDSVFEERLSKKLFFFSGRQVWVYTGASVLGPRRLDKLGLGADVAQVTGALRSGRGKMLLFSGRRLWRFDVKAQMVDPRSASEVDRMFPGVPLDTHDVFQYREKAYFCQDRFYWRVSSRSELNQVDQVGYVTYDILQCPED

| SMILES | ratio of MMP1 to MMP9 inhibition |
| --- | --- |
| COc1ccc(S(=O)(=O)N2CCc3ccccc3C2C(=O)NO)cc1 (centres unmarked) [reference compound] | 3.7 |
| COc1ccc(Oc2ccc(S(=O)(=O)N3CCc4ccccc4C3C(=O)NO)cc2)cc1 (centres unmarked) | 60 |
